Tests used:
[1] = target: Human immunodeficiency virus type 1 protease (Human immunodeficiency virus 1, UniProt Q72874); test: Inhibitory activity was evaluated against HIV protease
[2] = target: Human immunodeficiency virus type 1 protease (Human immunodeficiency virus 1) (UniProt Q72874); test: Inhibitory activity against HIV-1 RF infected MT-2 cells; format: functional, cell-based; details: MT2
[3] = Plasma Clearance was evaluated in rats, iv; format: ADME, organism-based; details: rat
[4] = Clearance value was evaluated in dog plasma; format: ADME, organism-based, Canis lupus familiaris
[5] = Half life period was evaluated in rats; format: ADME, organism-based; details: rat, in vivo
[6] = Bioavailability was evaluated in dog; format: ADME, organism-based, Canis lupus familiaris; details: in vivo
[7] = Maximum concentration was evaluated in dog plasma; format: ADME, organism-based, Canis lupus familiaris
[8] = Half life period was evaluated in dog; format: ADME, organism-based, Canis lupus familiaris; details: in vivo

Row | SMILES | Ki [1] [nM] | IC90 [2] [nM] | other results
1 | Nc1nc2cc(CN3C(=O)N(Cc4ccc5[nH]c(N)nc5c4)[C@H](Cc4ccccc4)[C@H](O)[C@@H](O)[C@H]3Cc3ccccc3)ccc2[nH]1 | 5.8 | 8100 | 
2 | O=C1N(Cc2ccc3nn[nH]c3c2)[C@H](Cc2ccccc2)[C@H](O)[C@@H](O)[C@@H](Cc2ccccc2)N1Cc1ccc2nn[nH]c2c1 | 0.09 |  | 
3 | O=C1N(Cc2ccc3[nH]ccc3c2)[C@H](Cc2ccccc2)[C@H](O)[C@@H](O)[C@@H](Cc2ccccc2)N1Cc1ccc2[nH]ccc2c1 | 1.3 | 190 | 
4 | O=C1N(Cc2ccc3c(c2)NS(=O)(=O)N3)[C@H](Cc2ccccc2)[C@H](O)[C@@H](O)[C@@H](Cc2ccccc2)N1Cc1ccc2c(c1)NS(=O)(=O)N2 | 0.19 | 32000 | 
5 | O=C1N(Cc2ccc3oc(O)nc3c2)[C@H](Cc2ccccc2)[C@H](O)[C@@H](O)[C@@H](Cc2ccccc2)N1Cc1ccc2oc(O)nc2c1 | 3.9 | 579 | 
6 | O=C1N(Cc2ccc(CO)cc2)[C@H](Cc2ccccc2)[C@H](O)[C@@H](O)[C@@H](Cc2ccccc2)N1Cc1ccc(CO)cc1 [DMP-323] |  | 100 | clearance [3]: 118 mL/min/kg
7 | O=C1Cc2cc(CN3C(=O)N(Cc4ccc5c(c4)CC(=O)N5)[C@H](Cc4ccccc4)[C@H](O)[C@@H](O)[C@H]3Cc3ccccc3)ccc2N1 | 0.14 | 370 | 
8 | O=C1Nc2ccc(CN3C(=O)N(Cc4ccc5c(c4)C(=O)C(=O)N5)[C@H](Cc4ccccc4)[C@H](O)[C@@H](O)[C@H]3Cc3ccccc3)cc2C1=O | 0.81 | 8500 | 
9 | O=C1N(Cc2ccc3nc(O)oc3c2)[C@H](Cc2ccccc2)[C@H](O)[C@@H](O)[C@@H](Cc2ccccc2)N1Cc1ccc2nc(O)oc2c1 | 0.18 | 40 | 
10 | O=C1N(Cc2ccc3nc(O)sc3c2)[C@H](Cc2ccccc2)[C@H](O)[C@@H](O)[C@@H](Cc2ccccc2)N1Cc1ccc2nc(O)sc2c1 | 0.91 | 109 | 
11 | O=C1N(Cc2ccc3sc(O)nc3c2)[C@H](Cc2ccccc2)[C@H](O)[C@@H](O)[C@@H](Cc2ccccc2)N1Cc1ccc2sc(O)nc2c1 | 130 |  | 
12 | Nc1nc2ccc(CN3C(=O)N(Cc4ccc5nc(N)oc5c4)[C@H](Cc4ccccc4)[C@H](O)[C@@H](O)[C@H]3Cc3ccccc3)cc2o1 | 0.2 | 84 | 
13 | O=C1N(Cc2ccc3nc(S)oc3c2)[C@H](Cc2ccccc2)[C@H](O)[C@@H](O)[C@@H](Cc2ccccc2)N1Cc1ccc2nc(S)oc2c1 | 4.8 | 5100 | 
14 | O=C1N(Cc2ccc3[nH]cnc3c2)[C@H](Cc2ccccc2)[C@H](O)[C@@H](O)[C@@H](Cc2ccccc2)N1Cc1ccc2[nH]cnc2c1 | 11 | 19000 | 
15 | Nc1nc2cc(CN3C(=O)N(Cc4ccc5sc(N)nc5c4)[C@H](Cc4ccccc4)[C@H](O)[C@@H](O)[C@H]3Cc3ccccc3)ccc2s1 | 190 | 950 | 
16 | Nc1nc2ccc(CN3C(=O)N(Cc4ccc5nc(N)sc5c4)[C@H](Cc4ccccc4)[C@H](O)[C@@H](O)[C@H]3Cc3ccccc3)cc2s1 | 5.7 | 270 | 
17 | O=C1N(Cc2ccc3[nH]c(O)nc3c2)[C@H](Cc2ccccc2)[C@H](O)[C@@H](O)[C@@H](Cc2ccccc2)N1Cc1ccc2[nH]c(O)nc2c1 | < 0.01 | > 65000 | 
18 | O=C1CNc2cc(CN3C(=O)N(Cc4ccc5c(c4)NCC(=O)N5)[C@H](Cc4ccccc4)[C@H](O)[C@@H](O)[C@H]3Cc3ccccc3)ccc2N1 | 6.1 | 7700 | 
19 | O=C1N(Cc2ccc3ncoc3c2)[C@H](Cc2ccccc2)[C@H](O)[C@@H](O)[C@@H](Cc2ccccc2)N1Cc1ccc2ncoc2c1 | 3.4 | 440 | 
20 | O=C1N(Cc2ccc3[nH]ncc3c2)[C@H](Cc2ccccc2)[C@H](O)[C@@H](O)[C@@H](Cc2ccccc2)N1Cc1ccc2[nH]ncc2c1 | 0.018 | 8 | clearance [4]: 18.3 mL/min/kg; half-life [5]: 2.7 h; clearance [3]: 3.33 mL/min/kg; bioavailability [6]: 13%; Cmax [7]: 600 ng/mL; half-life [8]: 2 h
21 | O=C1N(Cc2ccc3[nH]nnc3c2)[C@H](Cc2ccccc2)[C@H](O)[C@@H](O)[C@@H](Cc2ccccc2)N1Cc1ccc2[nH]nnc2c1 |  | 530 | 
22 | O=C1N(Cc2ccc3nc(O)cnc3c2)[C@H](Cc2ccccc2)[C@H](O)[C@@H](O)[C@@H](Cc2ccccc2)N1Cc1ccc2nc(O)cnc2c1 | 490 | 7800 | 
23 | O=C1N(Cc2ccc3scnc3c2)[C@H](Cc2ccccc2)[C@H](O)[C@@H](O)[C@@H](Cc2ccccc2)N1Cc1ccc2scnc2c1 | 28 | 3200 | 
24 | O=C1N(Cc2ccc3c[nH]nc3c2)[C@H](Cc2ccccc2)[C@H](O)[C@@H](O)[C@@H](Cc2ccccc2)N1Cc1ccc2c[nH]nc2c1 | 0.018 | 49 | 

Reference: ChEMBL document CHEMBL1128944, “Potent cyclic urea HIV protease inhibitors with benzofused heterocycles as P2/P2 groups” (Bioorg Med Chem Lett, 1996)
